Structures are written as SMILES.

Our source for the IC50 values is patent publication EP0337714A2, “HIV protease inhibitors useful for the treatment of aids” (priority 1988, dated 1989).

The target in experiment [1] is T1, HIV protease (Human immunodeficiency virus type 1 group M subtype B, UniProt P03366).
T1 construct: made in house; host or cells: Escherichia coli
The experiment in a line: Assay for Inhibition of Synthetic Viral Protease (HPLC of peptide substrate cleavage products). The class given is biochemical. The following applies: synthetic protease (residues 69-167 of the pol open reading frame), substrate Val-Ser-Gln-Asn-Tyr-Pro-Ile-Val 2 mg/mL, 50 mM Na acetate, pH 5.5, 30 C, 1 hour; read-out: ICso. As to the method:
Assay for Inhibition of Synthetic Viral Protease
Inhibition studies of the reaction of the synthetic protease [amino acid residues 69-167 of the pol open reading frame in Ratner, L. et al, Nature, 313, 277 (1985) and synthesized by Merrifield solid-phase synthesis] with a peptide substrate[Val-Ser-Gln-Asn-Tyr-Pro-Ile-Val, 2 mg/mL when the reaction is initiated) were in 50 mM Na acetate, pH 5.5, at 30 C for 1 hour. Various concentrations of inhibitor in 1.0 µl DMSO were added to 36 µl of assay solution and the reaction initiated by the addition of 4 ul (1.6 µg) of synthetic protease. The reaction was quenched with 160 ul of 12% acetic acid. Products of the reaction were separated by HPLC (VYDAC wide pore 5 cm C-18 reverse phase, acetonitrile gradient, 0.1% trifluoroacetic acid). The extent of inhibition of the reaction was determined from the peak heights of the products. HPLC of the products, independently synthesized, provided quantitation standards and confirmation of the product composition.

For experiment [2], the target named is T1, HIV protease. The experiment in a line: biochemical. The note with it: protease expressed in Eschericia coli, substrate Val-Ser-Gln-Asn-(betanapthyl)Ala-Pro-ile-Val 0.5 mg/mL, 50 mM Na acetate, pH 5.5, 30°, 1 hour; read-out: ICso. As to the method:
Assay for Inhibition of Microbial Expressed Viral Protease
Inhibition studies of the reaction of the protease expressed in Eschericia coli with a peptide substrate [Val-Ser-Gln-Asn-(betanapthyl)Ala-Pro-ile-Val, 0.5 mg/mL at the time the reaction is initiated] were in 50 mM Na acetate, pH 5.5, at 30° for 1 hour. Various concentrations of inhibitor in 1.0 ul DMSO were added to 25 ui of the peptide solution in water. The reaction is initiated by the addition of 15 ul of 0.33 nM protease (0.11 ng) in a solution of 0.133 M Na acetate pH 5.5 and 0.267% bovine serum albumin. The reaction was quenched with 160 ul of 5% phosphoric acid. Products of the reaction were separated by HPLC (VYDAC wide pore 5 cm C-18 reverse phase, acetonitrile gradient, 0.1% phosphoric acid). The extent of inhibition of the reaction was determined from the peak heights of the products.
Additional compounds were tested by the assay of Example 9.

`CC(C)C[C@H](NC(=O)[C@H](Cc1ccccc1)C[C@H](O)[C@H](CC1CCCCC1)NC(=O)OC(C)(C)C)C(=O)N[C@@H](Cc1ccccc1)C(N)=O` [Compound IV, N'-(1,1-dimethylethoxycarbonyl)-5(S)-amino-4(S)-hydroxy-6-cyclohexyl-2(R)-(phenylmethyl)hexanoyl-leucyl-phenylalanylamide]: the IC50 at HIV protease [1] is ~27 nM.

Take `CC(C)(C)OC(=O)N[C@@H](Cc1ccccc1)[C@@H](O)C[C@@H](Cc1ccccc1)C(=O)NCc1ccccc1` [Compound III]: the IC50 on HIV protease [1] is ~50 nM; at HIV protease [2], ~120 nM.

Consider `CC(C)C[C@H](NC(=O)[C@H](Cc1ccccc1)C[C@H](O)[C@H](Cc1ccccc1)NC(=O)OC(C)(C)C)C(=O)N[C@@H](Cc1ccccc1)C(N)=O` [Compound I, N'-(1,1-Dimethylethoxycarbonyl)-5(S)-amino-4(S)-hydroxy-6-phenyl-2(R)-(phenylmethyl)-hexanoyl-Leucyl-phenylalanyl amide], for which the IC50 at HIV protease [1] was ~2 nM; at HIV protease [2], ~0.6 nM.

For `CC(C)C[C@H](NC(=O)[C@H](Cc1ccccc1)C[C@H](O)[C@H](Cc1ccccc1)NC(=O)OC(C)(C)C)C(=O)NCc1ccccc1` [Compound II, N-Benzyl-N'-(1,1-dimethylethexycarbonyl)-5(S)-amino-4(S)-hydroxy-6-phenyl-2(R)-(phenylmethyl)hexanoyl-leucyl-amide], the IC50 on HIV protease [2] was ~1.4 nM.
